Data reported in patent US12209096B2, “Compounds and compositions for inducing chondrogenesis” (NOVARTIS AG, priority 2017, dated 2025).
Like-named read-outs stand apart in the source and are kept apart here.

Test system: NHACs
Assay: calcium flux assay
Type: cell-based, human
Details: for Emax: read-out: (A) % Efficacy
Method: NHACs were plated in 1536 Greiner plate at 2000 cells/well in 4 ul volume. 24 hours later, 4 ul of Calcium 5 dye solution (Hank's Balanced Salt/HEPES buffer containing 5 mM of Probenecid) was then added and incubated for 1 hour at room temperature. Fluorescence readings at excitation wavelength of 470-495 nm and emission wavelength of 515-575 nm were done using FLIPR high-throughput screening system (Molecular Devices, Sunnyvale, CA). The test compound was then added to each well at the indicated dose. Signal was measured prior compound dispense and after using a first interval of 1 second for 60 reads and second interval of 3 second for 20 reads. Data was analyzed using Molecular Devices ScreenWorks® Software.

Molecule | EC50 (Homo sapiens) [µM] | Emax (Homo sapiens) [%] | (A) % Efficacy [%] | EC50 [µM]
O=C(Nc1cccc(C(F)(F)F)c1)[C@@H]1[C@@H]2O[C@@H]([C@H]3C[C@H]32)[C@@H]1c1ccnc(F)c1 [Example 41, (1S,2S,4R,5R,6S,7S)-7-(2-fluoropyridin-4-yl)-N-(3-(trifluoromethyl)phenyl)-8-oxatricyclo[3.2.1.0^2,4]octane-6-carboxamide] | 24 | 121 | – | –
Cc1cc([C@H]2[C@H]3O[C@H](C[C@@H]3O)[C@@H]2C(=O)Nc2cc(Cl)c(Cl)cn2)ccn1 [Example 80, (1R,2R,3S,4R,5S)—N-(4,5-dichloropyridin-2-yl)-5-hydroxy-3-(2-methylpyridin-4-yl)-7-oxabicyclo[2.2.1]heptane-2-carboxamide] | > 50 | 32 | – | –
Cc1cc([C@@H]2[C@@H](C(=O)Nc3ccc(Cl)c(Cl)c3)[C@@H]3O[C@H]2C[C@@H]3F)ccn1 (single isomer, unassigned) [Example 93] | > 50 | 7 | – | –
Cc1cc([C@H]2[C@H]3O[C@H]([C@H](O)[C@@H]3O)[C@@H]2C(=O)Nc2cnc(Cl)c(Cl)c2)ccn1 [Example 162, (1S,2R,3S,4R,5S,6R)—N-(5,6-dichloropyridin-3-yl)-5,6-dihydroxy-3-(2-methylpyridin-4-yl)-7-oxabicyclo[2.2.1]heptane-2-carboxamide] | > 50 | 25 | – | –
Cc1cc([C@H]2[C@H]3O[C@H](C[C@@H]3O)[C@H]2C(=O)Nc2cnc(Cl)c(Cl)c2)ccn1 [Example 6, (1R,2S,3S,4R,5S)-N-(5,-6-dichloropyridin-3-yl)-5-hydroxy-3-(2-methylpyridin-4-yl)-7-oxabicyclo[2.2.1]heptane-2-carboxamide] | – | – | 17 | > 50
CN(C)[C@@H]1C[C@H]2O[C@@H]1[C@H](c1ccnc(F)c1)[C@H]2C(=O)Nc1cnc(Cl)c(Cl)c1 [Example 175, (1R,2R,3S,4R,5R)—N-(5,6-dichloropyridin-3-yl)-5-(dimethylamino)-3-(2-fluoropyridin-4-yl)-7-oxabicyclo[2.2.1]heptane-2-carboxamide] | 29 | 186 | – | –
COc1ccc(NC(=O)[C@@H]2[C@@H]3O[C@@H]([C@H]4C[C@H]43)[C@@H]2c2ccc(C)nc2)cn1 [Example 31, (1S,2S,4R,5R,6S,7S)-N-(6-methoxypyridin-3-yl)-7-(6-methylpyridin-3-yl)-8-oxatricyclo[3.2.1.0^2,4]octane-6-carboxamide] | > 50 | 0 | – | –
Cc1cc([C@@H]2[C@@H]3O[C@@H]([C@H]4C[C@H]43)[C@H]2C(=O)Nc2cccc(C(F)(F)F)c2)ccn1 (single isomer, unassigned) [Example 121b] | 22 | 92 | – | –
CN(C)c1ncc([C@H]2[C@H]3O[C@H](C[C@@H]3O)[C@H]2C(=O)Nc2ccc(Cl)c(Cl)c2)cn1 [Example 55, (1R,2S,3S,4R,5S)—N-(3,4-dichlorophenyl)-3-(2-(dimethylamino)pyrimidin-5-yl)-5-hydroxy-7-oxabicyclo[2.2.1]heptane-2-carboxamide] | > 50 | 0 | – | –
O=C(Nc1cnc(Cl)c(Cl)c1)[C@@H]1[C@@H]2O[C@@H]([C@H]3C[C@H]32)[C@@H]1c1ccncc1 (single isomer, unassigned) [Example 43b] | > 50 | 3 | – | –
Cc1cc([C@H]2[C@H]3O[C@H](C[C@H]3F)[C@@H]2C(=O)Nc2ccc(Cl)c(Cl)c2)ccn1 (single isomer, unassigned) [Example 92] | > 50 | 57 | – | –
Cc1cc([C@H]2[C@H](C(=O)Nc3ccc(Cl)c(Cl)c3)[C@@H]3C[C@](C)(O)[C@H]2O3)ccn1 [Example 179, (1S,2S,3R,4S,5S)—N-(3,4-dichlorophenyl)-5-hydroxy-5-methyl-3-(2-methylpyridin-4-yl)-7-oxabicyclo[2.2.1]heptane-2-carboxamide] | > 50 | 22 | – | –
Cc1cc([C@@H]2[C@@H](C(=O)Nc3cccc(C(F)(F)F)c3)[C@@H]3O[C@H]2C[C@H]3F)ccn1 [Example 108, (1S,2R,3S,4S,6R)-6-fluoro-3-(2-methylpyridin-4-yl)-N-(3-(trifluoromethyl)phenyl)-7-oxabicyclo[2.2.1]heptane-2-carboxamide] | 27 | 137 | – | –
COc1ccc(NC(=O)[C@@H]2[C@@H]3O[C@@H]([C@H]4C[C@H]43)[C@@H]2c2cccc(C(F)(F)F)n2)cn1 [Example 35, (1S,2S,4R,5R,6S,7S)—N-(6-methoxypyridin-3-yl)-7-(6-(trifluoromethyl)pyridin-2-yl)-8-oxatricyclo[3.2.1.0^2,4]octane-6-carboxamide] | > 50 | 0 | – | –
COc1cc([C@H]2[C@H]3O[C@H](C[C@@H]3F)[C@H]2C(=O)Nc2ccc(Cl)c(Cl)c2)ccn1 [Example 19, (1R,2S,3S,4R,5S)-N-(3,4-dichlorophenyl)-5-fluoro-3-(2-methoxypyridin-4-yl)-7-oxabicyclo[2.2.1]heptane-2-carboxamide] | 25 | 258 | – | –
(1R,2S,3S,4R,5S)-N-(5,6-dichloropyridin-3-yl)-5-hydroxy-3-(pyridin-4-yl)-7-oxabicyclo[2.2.1]heptane-2-carboxamide [Example 10] | – | – | 0 | > 50

Further molecules by falling EC50 (Homo sapiens), results first:

EC50 (Homo sapiens) [µM] | Molecule | Emax (Homo sapiens) [%] | (A) % Efficacy [%] | EC50 [µM]
21 | O=C(Nc1ccc(Cl)c(Cl)c1)[C@H]1[C@@H](c2cccc(C(F)(F)F)n2)[C@H]2O[C@@H]1C[C@@H]2O [Example 50, (1R,2S,3S,4R,5S)—N-(3,4-dichlorophenyl)-5-hydroxy-3-(6-(trifluoromethyl)pyridin-2-yl)-7-oxabicyclo[2.2.1]heptane-2-carboxamide] | 308 | – | –
20 | Cc1cc([C@H]2[C@H]3O[C@H]([C@@H]4C[C@@H]43)[C@@H]2C(=O)Nc2ccc(Cl)c(C#N)c2)ccn1 [Example 66, (1S,2S,4R,5R,6R,7S)—N-(4-chloro-3-cyanophenyl)-7-(2-methylpyridin-4-yl)-8-oxatricyclo[3.2.1.0^2,4]octane-6-carboxamide] | 179 | – | –
18 | COc1cc([C@H]2[C@H]3O[C@H](C[C@H]3F)[C@H]2C(=O)Nc2ccc(Cl)c(Cl)c2)ccn1 [Example 65, (1R,2S,3S,4R,5R)—N-(3,4-dichlorophenyl)-5-fluoro-3-(2-methoxypyridin-4-yl)-7-oxabicyclo[2.2.1]heptane-2-carboxamide] | 169 | – | –
18 | Cc1cc([C@H]2[C@H]3O[C@H](C[C@H]3F)[C@@H]2C(=O)Nc2ccc(OC(F)(F)F)c(F)c2)ccn1 [Example 100, (1R,2R,3S,4R,5R)-5-fluoro-N-(3-fluoro-4-(trifluoromethoxy)phenyl)-3-(2-methylpyridin-4-yl)-7-oxabicyclo[2.2.1]heptane-2-carboxamide] | 310 | – | –
17 | O=C(Nc1ccc(Cl)c(Cl)c1)[C@@H]1[C@H]2O[C@H]([C@@H]3C[C@@H]32)[C@H]1c1ccnc(F)c1F (single isomer, unassigned) [Example 122b] | 217 | – | –
13 | O=C(Nc1ccc(Cl)c(Cl)c1)[C@@H]1[C@@H](c2cncnc2)[C@H]2O[C@@H]1C[C@@H]2O [Example 141, (1R,2R,3S,4R,5S)—N-(3,4-dichlorophenyl)-5-hydroxy-3-(pyrimidin-5-yl)-7-oxabicyclo[2.2.1]heptane-2-carboxamide] | 43 | – | –
12 | Cc1cc([C@H]2[C@H]3O[C@H](C[C@@H]3F)[C@@H]2C(=O)Nc2cccc(C(F)(F)F)c2)ccn1 [Example 107, (1R,2R,3S,4R,5S)-5-fluoro-3-(2-methylpyridin-4-yl)-N-(3-(trifluoromethyl)phenyl)-7-oxabicyclo[2.2.1]heptane-2-carboxamide] | 139 | – | –
11 | Cc1cc([C@H]2[C@H](C(=O)Nc3ccc(Cl)c(Cl)c3)[C@H]3O[C@@H]2C[C@H]3F)ccn1 (single isomer, unassigned) [Example 95] | 113 | – | –
8.2 | O=C(Nc1ccc(Cl)c(Cl)c1)[C@H]1[C@@H](c2cnc(C(F)(F)F)nc2)[C@H]2O[C@@H]1C[C@@H]2O [Example 62, (1R,2S,3S,4R,5S)—N-(3,4-dichlorophenyl)-5-hydroxy-3-(2-(trifluoromethyl)pyrimidin-5-yl)-7-oxabicyclo[2.2.1]heptane-2-carboxamide] | 61 | – | –
6.2 | Cc1cc([C@H]2[C@H]3O[C@H]([C@@H]4C[C@@H]43)[C@@H]2C(=O)Nc2ccc(OC(F)(F)F)c(F)c2)ccn1 [Example 71, (1S,2S,4R,5R,6R,7S)—N-(3-fluoro-4-(trifluoromethoxy)phenyl)-7-(2-methylpyridin-4-yl)-8-oxatricyclo[3.2.1.0^2,4]octane-6-carboxamide] | 250 | – | –
0.84 | COc1cc([C@H]2[C@H]3O[C@H](C[C@@H]3O)[C@H]2C(=O)Nc2ccc(Cl)c(Cl)c2)ccn1 (single isomer, unassigned) [Example 49a] | 53 | – | –
0.79 | O=C(Nc1ccc(Cl)c(Cl)c1)[C@H]1[C@H](c2ccnc(F)c2)[C@@H]2O[C@H]1C[C@H]2O [Example 142b, (1S,2S,3R,4S,5R)-N-(3,4-dichlorophenyl)-3-(2-fluoropyridin-4-yl)-5-hydroxy-7-oxabicyclo[2.2.1]heptane-2-carboxamide] | 54 | – | –
0.3 | COc1ccc(NC(=O)[C@@H]2[C@@H]3O[C@@H]([C@H]4C[C@H]43)[C@@H]2c2ccc(C)nc2)cn1 (racemic) [Example 2, rac-(1S,2S,4R,5R,6S,7S)—N-(6-methoxypyridin-3-yl)-7-(6-methylpyridin-3-yl)-8-oxatricyclo[3.2.1.0^2,4]octane-6-carboxamide] | 45 | – | –
